PubChem BioAssay (NCI)
Several values for one entry are separate records, joined by “and”; a condition that tells them apart may be missing. Equal values may be shown once.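 Test compounds were applied to cells in 96-well plates for 48 hours at 5 doses. GI50 = concentration required for 50% inhibition of growth. TGI: total growth inhibition.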

Columns and labels:
Assay in all cases: NCI-60 cell line screen, 48 h
[1] = system: OVCAR-3 ovarian
[2] = system: NCI-H522 lung
[3] = system: SNB-19 CNS
[4] = system: UACC-62 melanoma
[5] = system: SF-539 CNS
[6] = system: COLO 205 colon
[7] = system: RPMI-8226 leukemia
[8] = system: SR leukemia

Row | Compound | TGI [1] [µM] | TGI [2] | TGI [3] [µM] | TGI [4] | TGI [5] | TGI [6] | TGI [7] [µM] | TGI [8] [µM] | GI50 [1] [µM] | GI50 [2] [µM] | GI50 [3] [µM] | GI50 [4] [µM] | GI50 [5] [µM] | GI50 [6] [µM] | GI50 [7] [µM] | GI50 [8] [µM]
1 | O=C(O)CCNS(=O)(=O)c1ccc2ccccc2c1 | > 100 | > 100 µM | > 100 | > 100 µM | > 100 µM | > 100 µM | > 100 |  |  |  |  |  |  |  |  | 
2 | Cc1ccc(NC(=O)C(=O)CC(=O)c2c(C)n([O-])c3ccccc3[n+]2=O)cc1C | > 100 | > 100 µM | > 100 | > 100 µM | > 100 µM | > 100 µM | > 100 | > 100 |  |  |  |  |  |  |  | 
3 | O=C(C(=O)n1ncc(Cl)c(Cl)c1=O)n1ncc(Cl)c(Cl)c1=O | 68.2 | 28.1 µM | > 100 | 32.2 µM | > 68.8 µM | 29 µM | 26.8 |  |  |  |  |  |  |  |  | 
4 | Cc1ccc(N=C[N-]c2ccc(C)cc2)cc1.Cc1ccc(N=C[N-]c2ccc(C)cc2)cc1.O=C([O-])C(F)(F)F.O=C([O-])C(F)(F)F.[OH3+].[OH3+].[Rh+2].[Rh+2] | > 100 | 53.2 µM | > 100 | 87.9 µM | 78.7 µM | > 100 µM | 40.6 |  | 62 | 23.4 | 58.6 | 32.4 | 26.6 | 36.3 | 18.9 | 
5 | Cc1cc(-c2c(F)cc3c4nn([C@H]5CC[C@@H](N(C)C)CC5)c(=O)c-4cn(C4CC4)c3c2F)cc(C)n1 | 2.66 | 0.144 µM and 0.771 µM | > 100 | 0.255 µM and 0.754 µM | 0.174 µM and 0.62 µM | 0.0936 µM and 0.889 µM |  | 0.0268 |  | 0.0325 |  | 0.0468 | 0.0561 | 0.0366 | 0.0294 | 0.002
6 | COc1ccc2nc(C(=O)c3ccccc3)c(C)cc2c1 | > 24.3 | 5.75 µM | > 100 | > 100 µM | 13.8 µM | > 34.5 µM | > 100 | > 100 |  |  |  |  |  |  |  | 
7 | Cc1ccc2nc(NC(=O)C(=O)C(C#N)c3ccc(Cl)cc3)sc2c1 (centres undefined) | > 50 |  | > 50 | > 50 µM | > 50 µM | > 50 µM | > 50 |  |  |  |  |  |  |  |  | 
8 | NC1c2ccccc2Nc2ccccc21 | 28.9 | 5.2 µM | 27.7 | 15.5 µM |  | 6.52 µM | 19.6 | 7.24 |  |  |  |  |  |  |  | 
9 | COc1ccc2oc3c(OC)c(OC)c(OC)cc3c(=O)c2c1 |  | > 100 µM | > 100 | > 100 µM | > 100 µM | > 100 µM | > 100 |  |  |  |  |  |  |  |  | 
10 | CCC[CH2][Sn]([CH2]CCC)([S]C#N)[S]C#N | 2.7 | 0.224 µM | 2.36 | 2 µM | 2.55 µM | 3.77 µM | 1.34 | 2.54 | 1.4 | 0.0451 | 1.12 | 0.58 | 1.24 | 1.4 | 0.229 | 0.36
11 | CCCCCC(=O)Nc1nc2nc[nH]c2c(=O)[nH]1 | > 100 | > 100 µM | > 100 | > 100 µM | > 100 µM | > 100 µM | > 100 | > 100 |  |  |  |  |  |  |  | 
12 | C1CCCCc2nc3c(nc2CCC1)c1nc2c(nc1c1nc4c(nc31)CCCCCCCC4)CCCCCCCC2 |  |  | > 100 | > 100 µM | > 100 µM | > 100 µM |  | > 100 |  |  |  |  |  |  |  | 
13 | COc1ccc(C2=Nc3ccccc3SC(C)C2)cc1OC (centres undefined) | 30.8 | 32.1 µM | 40.2 | 32.4 µM |  | 40.6 µM | 38.4 | 57.4 |  |  |  |  |  |  |  | 
14 | COc1ccccc1NC(=O)C1=C(C)NC(C)=C(C(=O)Nc2ccccc2OC)C1/C=C/c1ccccc1 | > 100 |  | > 100 | > 100 µM | > 100 µM | > 100 µM | > 100 | > 100 |  |  |  |  |  |  |  | 
15 | Cc1cccc(C(=O)O)c1C(=O)c1cccc2ccccc12 | > 100 | > 100 µM | > 100 | > 100 µM |  | > 100 µM |  | > 100 |  |  |  |  |  |  |  | 
16 | Clc1ccc(-c2c3ccc(=[N+]4CCCCC4)cc-3oc3cc(N4CCCCC4)ccc23)cc1 | 0.274 |  | 0.313 | 0.452 µM |  |  |  |  | 0.132 |  | 0.133 | 0.18 |  |  |  | 
17 | CCOC(=O)/C(=C/c1cccc(Cl)c1)N(CC)CC |  | 96.2 µM |  | > 100 µM | > 100 µM | > 100 µM | > 100 | > 100 |  |  |  |  |  |  |  | 
18 | COc1cc(/C=C/c2ccc(O)c(OC)c2)cc(OC)c1 |  |  | > 100 |  |  | > 100 µM | > 100 | > 100 |  |  |  |  |  |  |  | 
19 | CCN(CC)CC1CCCCN1CC(=O)N1CC(C)C(=O)Nc2ccccc21 (centres undefined) | > 100 |  | > 100 | > 100 µM |  | > 100 µM | > 100 | > 100 |  |  |  |  |  |  |  | 
20 | CCC(C)CC(C)CC(C)/C=C(\C)C1=C(C)CC(C)(O)O1 (centres undefined) |  | > 100 µM |  | > 100 µM | > 100 µM | > 100 µM | 90.7 |  |  |  |  |  |  |  |  | 
21 | CC(C)c1cccc(C(C)C)c1N1C(=O)C(=O)C(c2nc3ccccc3o2)C(=O)C1=O | > 100 | 50.6 µM | > 100 | > 100 µM | > 100 µM | > 100 µM | > 100 |  |  |  |  |  |  |  |  | 
